These are literature values, as cited in PMC11481577, “Allosteric coupling of substrate binding and proton translocation in MmpL3 transporter from Mycobacterium tuberculosis” (mBio, 2024).

In this data set the target is MmpL3. As to conditions: previously measured; read-out: affinity to MmpL3; cited from earlier work.

Regarding phosphatidylethanolamine [PE], the Kd is 19.5 ± 6.3 µM. With trehalose monomycolates [TMM], the Kd was 3.7 ± 1.3 µM.
